# Measurements published in article PMC9037111, “Structure-based design, synthesis, and biological evaluation of novel piperine–resveratrol hybrids as antiproliferative agents targeting SIRT-2” (RSC Advances, 2021).
# Like-named read-outs stand apart in the source and are kept apart here.
# Tests used:
# Assay in all cases: sirtuin deacetylase inhibition assay, % inhibition at […] ([…] at […])
# Assay type in all cases: biochemical
# SIRT2 [1] = target: T1, SIRT2 (Homo sapiens, UniProt Q8IXJ6)
# T1 sequence (Q8IXJ6 2-389): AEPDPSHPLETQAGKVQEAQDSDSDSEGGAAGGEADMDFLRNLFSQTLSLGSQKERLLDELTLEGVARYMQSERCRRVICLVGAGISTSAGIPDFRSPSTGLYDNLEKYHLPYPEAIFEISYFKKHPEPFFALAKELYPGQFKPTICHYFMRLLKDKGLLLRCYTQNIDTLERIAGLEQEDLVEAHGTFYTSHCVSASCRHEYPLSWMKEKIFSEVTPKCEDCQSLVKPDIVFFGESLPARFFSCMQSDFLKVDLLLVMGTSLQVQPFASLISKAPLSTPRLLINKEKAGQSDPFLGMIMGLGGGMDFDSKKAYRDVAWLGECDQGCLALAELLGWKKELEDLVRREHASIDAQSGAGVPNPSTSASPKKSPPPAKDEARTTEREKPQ
# SIRT1 [2] = target: T2, SIRT1 (Homo sapiens, UniProt Q96EB6)
# T2 sequence (Q96EB6 2-747): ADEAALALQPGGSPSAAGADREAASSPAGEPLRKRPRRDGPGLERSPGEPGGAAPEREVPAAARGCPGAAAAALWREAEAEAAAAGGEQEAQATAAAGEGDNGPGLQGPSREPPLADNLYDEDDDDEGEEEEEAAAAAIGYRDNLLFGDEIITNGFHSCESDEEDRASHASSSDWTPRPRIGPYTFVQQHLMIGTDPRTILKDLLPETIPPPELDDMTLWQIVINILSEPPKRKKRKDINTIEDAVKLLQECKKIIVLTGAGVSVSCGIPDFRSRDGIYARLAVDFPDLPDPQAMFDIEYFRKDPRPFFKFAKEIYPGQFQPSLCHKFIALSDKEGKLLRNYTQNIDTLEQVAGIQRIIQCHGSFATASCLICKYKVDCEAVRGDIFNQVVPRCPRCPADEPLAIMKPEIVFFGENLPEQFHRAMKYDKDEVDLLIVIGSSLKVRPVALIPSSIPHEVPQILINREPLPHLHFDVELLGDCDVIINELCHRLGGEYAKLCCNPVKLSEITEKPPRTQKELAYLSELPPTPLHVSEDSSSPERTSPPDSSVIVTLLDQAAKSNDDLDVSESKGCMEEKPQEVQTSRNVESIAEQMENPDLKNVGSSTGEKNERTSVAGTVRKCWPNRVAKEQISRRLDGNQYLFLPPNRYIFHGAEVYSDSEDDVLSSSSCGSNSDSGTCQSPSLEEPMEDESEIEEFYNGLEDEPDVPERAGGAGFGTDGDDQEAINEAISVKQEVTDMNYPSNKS
# SIRT2 [3] = target: T1, SIRT2; remark: listed apart in the source
# SIRT1 [4] = target: T2, SIRT1; remark: listed apart in the source
smiles,measurement,setting,value
"O=C(/C=C/C=C/c1ccc2c(c1)OCO2)NN=Cc1ccc(O)cc1 [5a, (2E,4E)-5-(Benzo[d][1,3]dioxol-5-yl)-N′-((E,Z)-4-hydroxybenzylidene)penta-2,4-dienehydrazide]",inhibition at 50 µM,SIRT2 [1],72 ± 3%
"CN(C)c1ccc(C=NNC(=O)/C=C/C=C/c2ccc3c(c2)OCO3)cc1 (mixture of isomers) [5d, (2E,4E)-5-(Benzo[d][1,3]dioxol-5-yl)-N′-((E/Z)-4-(dimethylamino)-benzylidene)penta-2,4-dienehydrazide]",inhibition at 50 µM,SIRT1 [2],48 ± 3%
same,inhibition at 50 µM,SIRT2 [3],70 ± 3%
"O=C(/C=C/C=C/c1ccc2c(c1)OCO2)N/N=C/c1ccc(O)cc1O [5b, (2E,4E)-5-(Benzo[d][1,3]dioxol-5-yl)-N′-((E)-2,4-dihydroxybenzylidene)penta-2,4-dienehydrazide]",inhibition at 50 µM,SIRT1 [4],45 ± 3%
